Data reported in US20040163143A1, “Method for efficiently producing transgenic plant using auxin precursor” (NIPPON PAPER INDUSTRIES CO., LTD., priority 2002, published 2004).

Tests used:
[1] = tested on: E. globulus hypocotyl sections; assay: E. globulus gene introduction test, vector pIAH6 (ipt + iaaH + GUS), adventitious bud redifferentiation and GUS staining; type: cell-based, Eucalyptus globulus; conditions: for B/A Redifferentiation ratio / C/A Gene introduction ratio / C/B Selection efficiency: section basis
Protocol: Using a plasmid pIAH6 as a vector having a GUS gene as a model of a desired gene and an ipt gene and an iaaH gene as selectable marker genes, a transformant was produced by carrying out gene introduction into Eucalyptus globulus (hereinafter referred to as “E. globulus”) by the method of the present invention. Seeds of E. globulus from Chile were sterilized by soaking in 70% ethanol for about 1 minute and then soaking with stirring in a 2% aqueous sodium hypochlorite solution for about 4 hours, washed thoroughly with sterile water, inoculated on an MS agar medium to which 0.5 mg/l zeatin had been added and stored in a refrigerator at 4° C. for 2 days to accelerate germination, and then the germination was carried out by culturing at 25° C. under light conditions of about 10 μmol/m^2/s in light intensity. One to two weeks after the inoculation of the seeds onto the germination medium, hypocotyls were collected by cutting out apical buds, cotyledons and roots of the germinated seedlings, and the hypocotyls were cut into sections of about 5 mm to be used as samples for gene introduction and subjected to the following test. A. tumefaciens EHA105 introduced with the plasmid pIAH6 in the above item I was cultured overnight in the YEB liquid medium and then diluted to OD630 =0.5 with EG basal medium, and the sections of hypocotyl prepared in the above were soaked in the cell suspension. Next, each of the sections after removing excess cell suspension was co-cultured with Agrobacterium on an agar medium (agar 8.5 g/l) prepared by adding 1.0 mg/l zeatin, 0.05 mg/l NAA and 40 mg/l acetosyringone to the EG basal medium, at 25° C. for 3 days in the dark to thereby infect each section with the pIAH6-introduced Agrobacterium. In this case, a modified MS medium having an ammonia nitrogen/nitrate nitrogen concentration ratio of 1:3 (5 mM NH4, 15 mM NO3) was supplemented with 20 g/l sucrose and used as the EG basal medium. The sections after infection culturing were put on an EG basal agar medium (agar 8.5 g/l) supplemented with 500 mg/l ticarcillin and 1 μM or 10 μM of an auxin precursor analogue NAM, and the culturing was continued at 25° C. under light conditions of 30 to 40 μmol/m^2/s in light intensity while sub-culturing at an interval of 2 weeks using the same medium. Among these sections, the quicker ones redifferentiated adventitious buds after about 2 months of the Agrobacterium infection. Three months after the Agrobacterium infection, in order to examine expression of the GUS gene used as a model of the desired gene, the redifferentiated adventitious buds were subjected to a GUS staining test in accordance with the method of Jefferson et al. (Plant Mol. Biol. Rep., 5: 387-405 (1987)), and the degree of formation of desired gene-introduced adventitious buds was judged by examining the number of stained adventitious buds (the number of adventitious buds expressing the desired gene). An E. globulus gene introduction test was carried out in the same manner as in Example 1, except that the hypocotyl sections after the Agrobacterium infection were cultured using the EG basal agar medium (agar 8.5 g/l) supplemented with 500 mg/l ticarcillin and 0 μM, 1 μM or 10 μM NAA as auxin.

[2] = tested on: E. globulus hypocotyl sections; assay: E. globulus gene introduction test, vector pIPT10 (ipt only + GUS), adventitious bud redifferentiation and GUS staining; type: cell-based, Eucalyptus globulus; conditions: for B/A Redifferentiation ratio / C/A Gene introduction ratio / C/B Selection efficiency: section basis
Protocol: Seeds of E. globulus from Chile were sterilized by soaking in 70% ethanol for about 1 minute and then soaking with stirring in a 2% aqueous sodium hypochlorite solution for about 4 hours, washed thoroughly with sterile water, inoculated on an MS agar medium to which 0.5 mg/l zeatin had been added and stored in a refrigerator at 4° C. for 2 days to accelerate germination, and then the germination was carried out by culturing at 25° C. under light conditions of about 10 μmol/m^2/s in light intensity. One to two weeks after the inoculation of the seeds onto the germination medium, hypocotyls were collected by cutting out apical buds, cotyledons and roots of the germinated seedlings, and the hypocotyls were cut into sections of about 5 mm to be used as samples for gene introduction and subjected to the following test. A. tumefaciens EHA105 introduced with the plasmid pIAH6 in the above item I was cultured overnight in the YEB liquid medium and then diluted to OD630 =0.5 with EG basal medium, and the sections of hypocotyl prepared in the above were soaked in the cell suspension. Next, each of the sections after removing excess cell suspension was co-cultured with Agrobacterium on an agar medium (agar 8.5 g/l) prepared by adding 1.0 mg/l zeatin, 0.05 mg/l NAA and 40 mg/l acetosyringone to the EG basal medium, at 25° C. for 3 days in the dark to thereby infect each section with the pIAH6-introduced Agrobacterium. In this case, a modified MS medium having an ammonia nitrogen/nitrate nitrogen concentration ratio of 1:3 (5 mM NH4, 15 mM NO3) was supplemented with 20 g/l sucrose and used as the EG basal medium. The sections after infection culturing were put on an EG basal agar medium (agar 8.5 g/l) supplemented with 500 mg/l ticarcillin and 1 μM or 10 μM of an auxin precursor analogue NAM, and the culturing was continued at 25° C. under light conditions of 30 to 40 μmol/m^2/s in light intensity while sub-culturing at an interval of 2 weeks using the same medium. Among these sections, the quicker ones redifferentiated adventitious buds after about 2 months of the Agrobacterium infection. Three months after the Agrobacterium infection, in order to examine expression of the GUS gene used as a model of the desired gene, the redifferentiated adventitious buds were subjected to a GUS staining test in accordance with the method of Jefferson et al. (Plant Mol. Biol. Rep., 5: 387-405 (1987)), and the degree of formation of desired gene-introduced adventitious buds was judged by examining the number of stained adventitious buds (the number of adventitious buds expressing the desired gene). An E. globulus gene introduction test was carried out in the same manner as in Example 1, except that the hypocotyl sections after the Agrobacterium infection were cultured using the EG basal agar medium (agar 8.5 g/l) supplemented with 500 mg/l ticarcillin and 0 μM, 1 μM or 10 μM NAA as auxin. An E. globulus gene introduction test was carried out in the same manner as in Example 1 or Comparative Example 1, except that a plasmid pIPT10 having only the ipt gene as the selectable marker gene was used as the vector. Also, the vector also has the GUS gene as a model of the desired gene. Structure of T-DNA region of the pIPT10 used in this case is shown in FIG. 2, and results of the gene introduction test are shown in Table 3.

[3] = NAA 1 μM in medium, 62 sections tested
[4] = NAA 10 μM in medium, 40 sections tested

Structure (SMILES): O=C(O)Cc1cccc2ccccc12 [NAA, naphthaleneacetic acid]
- B Adventitious bud differentiated (number of sections) [1, 3]: 9 number of sections
- C GUS + adventitious bud differentiated (number of sections) [1, 3]: 2 number of sections
- B/A Redifferentiation ratio ([1]; NAA 1 μM in medium): 14.5%
- C/A Gene introduction ratio ([1]; NAA 1 μM in medium): 3.2%
- C/B Selection efficiency ([1]; NAA 1 μM in medium): 22.2%
- B Adventitious bud differentiated (number of sections) [1, 4]: 13 number of sections
- C GUS + adventitious bud differentiated (number of sections) [1, 4]: 1 number of sections
- B/A Redifferentiation ratio ([1]; NAA 10 μM in medium): 32.5%
- C/A Gene introduction ratio ([1]; NAA 10 μM in medium): 2.5%
- C/B Selection efficiency ([1]; NAA 10 μM in medium): 7.7%
- B Adventitious bud differentiated (number of sections) ([2]; additive 1 μM in medium): 9 number of sections
- C GUS + adventitious bud differentiated (number of sections) ([2]; additive 1 μM in medium): 1 number of sections
- B/A Redifferentiation ratio ([2]; additive 1 μM in medium): 20.5%
- C/A Gene introduction ratio ([2]; additive 1 μM in medium): 2.3%
- C/B Selection efficiency ([2]; additive 1 μM in medium): 11.1%
- B Adventitious bud differentiated (number of sections) ([2]; additive 10 μM in medium): 7 number of sections
- C GUS + adventitious bud differentiated (number of sections) ([2]; additive 10 μM in medium): 0 number of sections
- B/A Redifferentiation ratio ([2]; additive 10 μM in medium): 15.9%
- C/A Gene introduction ratio ([2]; additive 10 μM in medium): 0.0%
- C/B Selection efficiency ([2]; additive 10 μM in medium): 0%
